According to paper PMC5454964, “Isolation of Rice Bran Lectins and Characterization of Their Unique Behavior in Caco-2 Cells” (International Journal of Molecular Sciences, 2017):

Legend:
[1] = target: T1, RBA2 (rice bran lectin 2) (Oryza sativa, UniProt Q0JF21); experiment: hemagglutination inhibition (rabbit erythrocytes); format: biochemical; conditions: pH 7.5, room temperature, 2-fold serial dilution
T1 construct: gene Os04g0173800; noncovalent homodimer of 12-kDa subunits, 25 kDa
T1 sequence (Q0JF21 123-201): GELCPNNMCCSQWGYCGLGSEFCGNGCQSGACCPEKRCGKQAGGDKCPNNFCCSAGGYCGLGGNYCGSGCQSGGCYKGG
From the text: hemagglutination inhibition (rabbit erythrocytes) on RBA2 (rice bran lectin 2)

[2] = target: T2, RBA1 (rice bran lectin 1) (Oryza sativa, UniProt Q0JF21); experiment: hemagglutination inhibition (rabbit erythrocytes); format: biochemical; conditions: pH 7.5, room temperature, 2-fold serial dilution
T2 construct: gene Os04g0173800; disulfide-linked heterodimer of 20- and 12-kDa subunits, 32-33 kDa
T2 sequence (Q0JF21 29-122): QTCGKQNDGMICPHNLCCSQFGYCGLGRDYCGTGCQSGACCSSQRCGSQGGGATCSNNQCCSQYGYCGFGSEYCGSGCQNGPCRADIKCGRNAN
T2 sequence (Q0JF21 123-201): T1 sequence (Q0JF21 123-201)
From the text: hemagglutination inhibition (rabbit erythrocytes) on RBA1 (rice bran lectin 1)

[3] = target: T3, bovine serum albumin (BSA) (Bos taurus, UniProt P02769); experiment: frontal affinity chromatography, immobilised protein; format: binding; conditions: pH 7.3, 25 °C, EDTA-PB
T3 construct: gene ALB
T3 sequence (P02769 25-607): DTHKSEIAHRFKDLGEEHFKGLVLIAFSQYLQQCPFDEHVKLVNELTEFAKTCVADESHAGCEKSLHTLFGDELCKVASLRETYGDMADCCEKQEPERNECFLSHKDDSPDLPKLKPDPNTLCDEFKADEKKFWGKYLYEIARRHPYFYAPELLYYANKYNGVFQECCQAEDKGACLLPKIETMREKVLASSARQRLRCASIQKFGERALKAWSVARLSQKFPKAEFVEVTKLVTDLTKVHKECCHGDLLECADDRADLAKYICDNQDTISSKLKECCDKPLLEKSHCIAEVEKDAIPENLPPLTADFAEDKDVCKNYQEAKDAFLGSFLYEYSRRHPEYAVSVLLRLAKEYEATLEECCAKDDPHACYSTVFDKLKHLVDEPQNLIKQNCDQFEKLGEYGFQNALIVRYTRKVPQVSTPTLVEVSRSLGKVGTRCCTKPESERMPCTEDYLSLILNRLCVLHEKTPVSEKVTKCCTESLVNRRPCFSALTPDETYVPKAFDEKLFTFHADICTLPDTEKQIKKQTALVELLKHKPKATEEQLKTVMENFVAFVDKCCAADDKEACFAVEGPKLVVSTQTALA

SMILES: CC(=O)N[C@H]1C(O)O[C@H](CO)[C@H](O)[C@@H]1O (stereo partly drawn) [N-Acetyl D-galactosamine]
- RBA2 [1]: 50 mM

SMILES: CC(=O)N[C@H]1[C@H](O[C@H]2[C@H](O)[C@@H](NC(C)=O)[C@H](O[C@H]3[C@H](O)[C@@H](NC(C)=O)C(O)O[C@@H]3CO)O[C@@H]2CO)O[C@H](CO)[C@@H](O[C@@H]2O[C@H](CO)[C@@H](O[C@@H]3O[C@H](CO)[C@@H](O)[C@H](O)[C@H]3NC(C)=O)[C@H](O)[C@H]2NC(C)=O)[C@@H]1O (stereo partly shown) [Penta-N-acetylchitopentaose]
- RBA2 [1]: 0.04 mM
- RBA1 [2]: 0.02 mM

SMILES: COC(=O)c1ccccc1-c1c2ccc(=N)cc-2oc2cc(N)ccc12 [Rhodamine 123]
- V - V0 [3]: BSA showed a similar interaction with RH.

SMILES: N[C@H]1C(O)O[C@H](CO)[C@H](O)[C@@H]1O (stereo partly drawn) [D-Galactosamine]
- RBA2 [1]: 0.8 mM
- RBA1 [2]: > 200 mM

SMILES: CC(=O)N[C@H]1[C@H](O[C@H]2[C@H](O)[C@@H](NC(C)=O)C(O)O[C@@H]2CO)O[C@H](CO)[C@@H](O)[C@@H]1O (stereo partly shown) [Di-N-acetylchitobiose]
- RBA2 [1]: 6.25 mM
- RBA1 [2]: 0.78 mM

SMILES: N[C@H]1[C@H](O[C@H]2[C@H](O)[C@@H](N)C(O)O[C@@H]2CO)O[C@H](CO)[C@@H](O)[C@@H]1O (stereo partly shown) [Chitobiose]
- RBA1 [2]: 100 mM

SMILES: CC(=O)N[C@H]1C(O)O[C@H](CO)[C@@H](O)[C@@H]1O (stereo partly drawn) [N-Acetyl D-glucosamine]
- RBA2 [1]: 50 mM
- RBA1 [2]: 25 mM

SMILES: N[C@H]1C(O)O[C@H](CO)[C@@H](O)[C@@H]1O (stereo partly drawn) [D-Glucosamine]
- RBA2 [1]: 3.1 mM
- RBA1 [2]: > 200 mM

SMILES: CC(=O)N[C@H]1[C@H](O[C@H]2[C@H](O)[C@@H](NC(C)=O)C(O)O[C@@H]2CO)O[C@H](CO)[C@@H](O[C@@H]2O[C@H](CO)[C@@H](O)[C@H](O)[C@H]2NC(C)=O)[C@@H]1O (stereo partly shown) [Tri-N-acetylchitotriose]
- RBA2 [1]: 0.39 mM
- RBA1 [2]: 0.09 mM

SMILES: CC(=O)N[C@H]1[C@H](O[C@H]2[C@H](O)[C@@H](NC(C)=O)C(O)O[C@@H]2CO)O[C@H](CO)[C@@H](O[C@@H]2O[C@H](CO)[C@@H](O[C@@H]3O[C@H](CO)[C@@H](O)[C@H](O)[C@H]3NC(C)=O)[C@H](O)[C@H]2NC(C)=O)[C@@H]1O (stereo partly shown) [Tetra-N-acetylchitotetraose]
- hemagglutination inhibition concentration [1]: 0.04 mM
- RBA1 [2]: 0.04 mM

SMILES: CC(=O)N[C@H]1[C@H](O[C@H]2[C@H](O)[C@@H](NC(C)=O)[C@H](O[C@H]3[C@H](O)[C@@H](NC(C)=O)C(O)O[C@@H]3CO)O[C@@H]2CO)O[C@H](CO)[C@@H](O[C@@H]2O[C@H](CO)[C@@H](O[C@@H]3O[C@H](CO)[C@@H](O[C@@H]4O[C@H](CO)[C@@H](O)[C@H](O)[C@H]4NC(C)=O)[C@H](O)[C@H]3NC(C)=O)[C@H](O)[C@H]2NC(C)=O)[C@@H]1O (stereo partly shown) [Hexa-N-acetylchitohexaose]
- hemagglutination inhibition concentration [1]: 0.04 mM
- RBA1 [2]: 0.04 mM
